# Measurements reported in patent US20120041070A1, “METHODS OF TREATING CANCER HAVING AN ABERRANT EGFR OR KRAS GENOTYPE” (priority 2009, published 2012).
# Like-named read-outs stand apart in the source and are kept apart here.
# Columns and labels:
# [1] = test system: A549 NSCL (KRAS mutant) cells; assay: A549 cell proliferation assay (Cell TiterGlow, total ATP); format: cell-based; details: for EC50: Homo sapiens, A549, DMEM 10% FBS, 72 hours, Cell TiterGlow, read-out: EC50, inhibition of A549 cell proliferation
# Description: To investigate the effect of phenformin on proliferation of a commonly used cancer cell line A549 NSCL (KRAS mutant), a cell proliferation assay was performed. A549 cells were grown in DMEM with 10% FBS, and were treated with designated concentrations (phenformin dose range 0-100 μM; metformin dose range 0-3000 μM) of drugs for 72 hours. Cell viability was determined with Cell TiterGlow to measure total ATP content in live cells.
# [2] = test system: HME-TERT-EGFR (del E746-A750) cells; assay: MTS cell proliferation assay, HME-TERT cells carrying EGFR mutation; format: cell-based, human; details: for EC50: Homo sapiens, HME-TERT-EGFR (del E746-A750), MTS, 0.5% FBS, read-out: Inhibition of cell proliferation: EC50, EGFR
# Description: (§1) To investigate the effect of phenformin on proliferation of cells carrying an EGFR mutation, HME cell proliferation assays were performed. An isogenic HME-TERT cell line carrying a mutation in EGFR (del E746-A750) was generated by a “knock in” approach. HME-TERT-EGFR (del E746-A750) cells and control HME parental cells were cultured in DMEM/F12K (glucose 17 mM, glutamine 2.5 mM) with 0.5% FBS, and were treated with a series of dilution of Paclitaxel (100 nM top concentration, 3-fold dilution), Phenformin (3 mM top concentration, 3-fold dilution), or metformin (10 mM top concentration, 3-fold dilution), in duplication or triplication. MTS assays were performed 48, 72, 96 or 120 hours after drug treatment. MTS assay is a colorimetric assay for determining the number of viable cells (see, e.g., Cory A H et al., 1991, Cancer communications 3 (7): 207-12, and Wilson, A P, Cytotoxicity and Viability Assays in Animal Cell Culture: A Practical Approach, 3rd ed. (ed. Masters, J. R. W.) Oxford University Press, 2000, Vol. 1). […] Z′ is defined as Z′=1-3(MAX stdev−background stdev)/(MAX−background). A Z′ value greater than 0.4 is acceptable for cell assays, and a Z′ value greater than 0.6 is acceptable for enzyme assays.
# [3] = test system: HME-TERT parental (wild type) cells; assay: MTS cell proliferation assay, control HME parental (WT) cells; format: cell-based; details: Homo sapiens, 0.5% FBS, read-out: Inhibition of cell proliferation: EC50, WT
# Description: as §1
# (§2) To investigate the effect of phenformin on proliferation of cells carrying a KRAS mutation, HME cell proliferation assays were performed. An isogenic HME-TERT cell line carrying a mutation in KRAS (G13D) was generated by a “knock in” approach. HME-TERT-KRAS (G13D) cells and control HME parental cells were cultured in DMEM/F12K (glucose 17 mM, glutamine 2.5 mM) with 0.5% FBS, and were treated with a series of dilution of Paclitaxel (100 nM top concentration, 3-fold dilution), Phenformin (3 mM top concentration, 3-fold dilution), or metformin (10 mM top concentration, 3-fold dilution), in duplication or triplication. MTS assays were performed 48, 72, 96 or 120 hours after drug treatment. MTS assay is a colorimetric assay for determining the number of viable cells (see, e.g., Cory A H et al., 1991, Cancer communications 3 (7): 207-12, and Wilson, A P, Cytotoxicity and Viability Assays in Animal Cell Culture: A Practical Approach, 3rd ed. (ed. Masters, J. R. W.) Oxford University Press, 2000, Vol. 1). […] Z′ is defined as Z′=1-3(MAX stdev−background stdev)/(MAX−background). A Z′ value greater than 0.4 is acceptable for cell assays, and a Z′ value greater than 0.6 is acceptable for enzyme assays.
# [4] = test system: HME-TERT-KRAS (G13D) cells; assay: MTS cell proliferation assay, HME-TERT cells carrying KRAS mutation; format: cell-based, human; details: for EC50: Homo sapiens, HME-TERT-KRAS (G13D), MTS, 0.5% FBS, read-out: Inhibition of cell proliferation: EC50, KRAS
# Description: as §2
Compound,EC50 [1] [µM],EC50 ([2]; 48 h) [µM],EC50 ([2]; 72 h) [µM],EC50 ([2]; 96 h) [µM],EC50 ([2]; 120 h) [µM],EC50 ([3]; 48 h after drug treatment) [µM],EC50 ([3]; 72 h after drug treatment) [µM],EC50 ([3]; 96 h after drug treatment) [µM],EC50 ([3]; 120 h after drug treatment) [µM],EC50 ([4]; 48 h) [µM],EC50 ([4]; 72 h) [µM],EC50 ([4]; 96 h) [µM],EC50 ([4]; 120 h) [µM],"fold more sensitive than metformin in inhibiting the proliferation of A549 cells ([1]; A549, 72 hours, ratio of EC50 values)","inhibition of proliferation of EGFR mutated HME cells compared with wild type cells ([2]; MTS assay, result in words)","inhibition of proliferation of KRAS mutated HME cells compared with wild type cells ([4]; MTS assay, result in words)"
CN(C)C(=N)N=C(N)N [metformin],650,> 3000,> 3000,> 3000,> 3000,> 3000,> 3000,> 3000,> 3000,> 3000,> 3000,> 3000,> 3000,–,–,–
N=C(N)NC(=N)NCCc1ccccc1 [phenformin],5,1680,632,486,393,2090,1690,1140,626,1640,1250,727,440,about 112 fold,more than that of wild type cells,more than that of wild type cells
